ChEMBL document CHEMBL4507303, “Data for DCP probe TP-004” (2021)
The source made the active and inactive calls. The rule behind the calls is not given here.

Legend:
[1] = target: Serine/threonine-protein kinase RIO1 (Homo sapiens) (UniProt Q9BRS2); settings: Compound concentration 1000.0 nM
[2] = target: Tyrosine-protein kinase Fyn (Homo sapiens) (UniProt P06241); settings: Compound concentration 1000.0 nM
[3] = target: MAP/microtubule affinity-regulating kinase 3 (Homo sapiens) (UniProt P27448); settings: Compound concentration 1000.0 nM
Sequence of MAP/microtubule affinity-regulating kinase 3 (Homo sapiens) (P27448 whole entry, looked up): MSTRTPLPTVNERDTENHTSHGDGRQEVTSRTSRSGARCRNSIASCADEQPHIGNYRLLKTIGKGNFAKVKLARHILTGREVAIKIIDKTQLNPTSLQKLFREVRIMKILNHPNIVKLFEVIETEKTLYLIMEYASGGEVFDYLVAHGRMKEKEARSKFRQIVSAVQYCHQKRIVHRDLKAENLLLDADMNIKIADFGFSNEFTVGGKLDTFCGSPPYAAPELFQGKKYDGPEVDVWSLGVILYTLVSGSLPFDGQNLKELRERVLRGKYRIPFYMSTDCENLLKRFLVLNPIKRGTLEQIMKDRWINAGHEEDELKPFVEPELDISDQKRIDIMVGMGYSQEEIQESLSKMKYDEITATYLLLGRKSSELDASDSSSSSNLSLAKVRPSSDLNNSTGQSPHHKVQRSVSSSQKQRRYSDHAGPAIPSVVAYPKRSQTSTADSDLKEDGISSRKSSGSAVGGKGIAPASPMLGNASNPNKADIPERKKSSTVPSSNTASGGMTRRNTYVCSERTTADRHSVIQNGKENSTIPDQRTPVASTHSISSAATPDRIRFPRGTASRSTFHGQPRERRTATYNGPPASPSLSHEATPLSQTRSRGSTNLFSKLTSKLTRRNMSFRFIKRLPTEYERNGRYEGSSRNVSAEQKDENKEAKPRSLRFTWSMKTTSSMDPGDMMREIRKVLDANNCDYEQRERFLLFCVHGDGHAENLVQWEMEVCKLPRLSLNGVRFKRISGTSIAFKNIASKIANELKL

[4] = target: Ribosomal protein S6 kinase alpha-1 (Homo sapiens) (UniProt Q15418); settings: Compound concentration 1000.0 nM
[5] = target: Serine/threonine-protein kinase 32B (Homo sapiens) (UniProt Q9NY57); settings: Compound concentration 1000.0 nM
[6] = target: Cyclin-dependent kinase 15 (Homo sapiens) (UniProt Q96Q40); settings: Compound concentration 1000.0 nM
[7] = target: Phosphatidylinositol 4,5-bisphosphate 3-kinase catalytic subunit delta isoform (Homo sapiens) (UniProt O00329); settings: Compound concentration 1000.0 nM
[8] = target: Methionine aminopeptidase 2 (Homo sapiens, UniProt P50579); test: Biochemical activity-MetAP2 using Mn
[9] = target: Cyclin-dependent kinase 16 (Homo sapiens) (UniProt Q00536); settings: Compound concentration 1000.0 nM
[10] = target: Serine/threonine-protein kinase TAO1 (Homo sapiens) (UniProt Q7L7X3); settings: Compound concentration 1000.0 nM
[11] = target: Alpha-1A adrenergic receptor (Homo sapiens) (UniProt P35348); settings: Compound concentration 10.0 uM
[12] = target: Mitogen-activated protein kinase 3 (Homo sapiens) (UniProt P27361); settings: Compound concentration 1000.0 nM
[13] = target: Cyclin-G-associated kinase (Homo sapiens) (UniProt O14976); settings: Compound concentration 1000.0 nM
Sequence of Cyclin-G-associated kinase (Homo sapiens) (O14976 whole entry, canonical isoform): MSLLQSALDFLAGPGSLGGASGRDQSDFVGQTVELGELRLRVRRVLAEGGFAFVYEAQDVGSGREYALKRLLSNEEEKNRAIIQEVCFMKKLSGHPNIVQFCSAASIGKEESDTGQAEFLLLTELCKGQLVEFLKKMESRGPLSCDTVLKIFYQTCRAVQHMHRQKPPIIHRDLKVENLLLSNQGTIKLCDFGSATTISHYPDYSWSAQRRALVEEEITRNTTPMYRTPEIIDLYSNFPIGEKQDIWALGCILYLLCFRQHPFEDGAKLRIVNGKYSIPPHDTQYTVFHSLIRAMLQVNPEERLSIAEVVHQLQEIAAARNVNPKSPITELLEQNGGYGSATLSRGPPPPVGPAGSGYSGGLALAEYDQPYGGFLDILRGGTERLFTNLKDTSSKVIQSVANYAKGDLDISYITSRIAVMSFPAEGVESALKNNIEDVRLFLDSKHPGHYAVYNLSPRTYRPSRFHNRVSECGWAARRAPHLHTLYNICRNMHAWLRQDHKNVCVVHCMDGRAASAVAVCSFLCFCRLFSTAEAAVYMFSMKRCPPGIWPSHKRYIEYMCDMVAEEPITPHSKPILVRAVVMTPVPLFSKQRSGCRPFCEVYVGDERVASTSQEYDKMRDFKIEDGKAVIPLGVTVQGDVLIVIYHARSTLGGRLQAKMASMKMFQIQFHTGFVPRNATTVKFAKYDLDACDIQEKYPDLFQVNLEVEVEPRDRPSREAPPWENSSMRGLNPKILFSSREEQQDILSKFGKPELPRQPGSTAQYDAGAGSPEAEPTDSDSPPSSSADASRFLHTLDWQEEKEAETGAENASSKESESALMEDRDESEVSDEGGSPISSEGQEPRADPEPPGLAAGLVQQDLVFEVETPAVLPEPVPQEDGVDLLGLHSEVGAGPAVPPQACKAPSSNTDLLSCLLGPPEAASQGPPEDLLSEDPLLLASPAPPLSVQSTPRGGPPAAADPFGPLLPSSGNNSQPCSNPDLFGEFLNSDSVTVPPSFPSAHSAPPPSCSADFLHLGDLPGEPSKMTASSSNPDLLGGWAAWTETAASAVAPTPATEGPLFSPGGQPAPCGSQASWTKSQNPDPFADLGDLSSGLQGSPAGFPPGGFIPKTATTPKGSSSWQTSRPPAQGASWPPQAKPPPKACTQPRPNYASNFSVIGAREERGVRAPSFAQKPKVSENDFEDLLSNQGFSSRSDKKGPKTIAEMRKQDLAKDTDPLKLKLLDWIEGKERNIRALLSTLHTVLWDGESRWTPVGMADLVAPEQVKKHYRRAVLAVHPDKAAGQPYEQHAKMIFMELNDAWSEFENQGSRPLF

[14] = test system: Phosphatidylinositol 4,5-bisphosphate 3-kinase catalytic subunit alpha isoform (Homo sapiens), P42336 [E545K]; settings: Compound concentration 1000.0 nM
[15] = target: Mitogen-activated protein kinase 11 (Homo sapiens) (UniProt Q15759); settings: Compound concentration 1000.0 nM
[16] = target: cAMP-dependent protein kinase catalytic subunit PRKX (Homo sapiens) (UniProt P51817); settings: Compound concentration 1000.0 nM
[17] = target: Serine/threonine-protein kinase haspin (Homo sapiens) (UniProt Q8TF76); settings: Compound concentration 1000.0 nM
[18] = target: Mitogen-activated protein kinase kinase kinase 2 (Homo sapiens) (UniProt Q9Y2U5); settings: Compound concentration 1000.0 nM
[19] = target: Serine/threonine-protein kinase 24 (Homo sapiens) (UniProt Q9Y6E0); settings: Compound concentration 1000.0 nM
[20] = target: Ephrin type-B receptor 6 (Homo sapiens) (UniProt O15197); settings: Compound concentration 1000.0 nM
[21] = target: Fibroblast growth factor receptor 3 (Homo sapiens) (UniProt P22607); settings: Compound concentration 1000.0 nM
[22] = target: Calcium/calmodulin-dependent protein kinase kinase 2 (Homo sapiens) (UniProt Q96RR4); settings: Compound concentration 1000.0 nM
[23] = target: Sodium-dependent noradrenaline transporter (Homo sapiens) (UniProt P23975); settings: Compound concentration 10.0 uM
[24] = target: Homeodomain-interacting protein kinase 4 (Homo sapiens) (UniProt Q8NE63); settings: Compound concentration 1000.0 nM
[25] = target: Serine/threonine-protein kinase Chk2 (Homo sapiens) (UniProt O96017); settings: Compound concentration 1000.0 nM
Sequence of Serine/threonine-protein kinase Chk2 (Homo sapiens) (O96017 whole entry): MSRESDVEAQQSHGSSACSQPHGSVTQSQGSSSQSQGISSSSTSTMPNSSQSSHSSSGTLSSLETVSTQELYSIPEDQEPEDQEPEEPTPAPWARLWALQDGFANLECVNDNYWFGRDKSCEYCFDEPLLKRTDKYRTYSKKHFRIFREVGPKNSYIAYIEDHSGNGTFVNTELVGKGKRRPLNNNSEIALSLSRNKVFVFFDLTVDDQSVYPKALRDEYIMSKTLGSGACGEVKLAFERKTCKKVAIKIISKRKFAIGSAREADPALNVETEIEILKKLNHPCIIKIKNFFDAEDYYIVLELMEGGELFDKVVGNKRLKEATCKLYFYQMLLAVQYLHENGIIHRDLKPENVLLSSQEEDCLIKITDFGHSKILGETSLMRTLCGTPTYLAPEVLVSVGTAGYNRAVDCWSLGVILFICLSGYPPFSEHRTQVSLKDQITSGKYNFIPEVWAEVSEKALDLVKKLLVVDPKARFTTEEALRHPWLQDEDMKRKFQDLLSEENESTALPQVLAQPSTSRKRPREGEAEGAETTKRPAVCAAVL

[26] = target: Insulin receptor-related protein (Homo sapiens) (UniProt P14616); settings: Compound concentration 1000.0 nM
[27] = target: Casein kinase I isoform epsilon (Homo sapiens) (UniProt P49674); settings: Compound concentration 1000.0 nM
[28] = target: Ribosomal protein S6 kinase alpha-3 (Homo sapiens) (UniProt P51812); settings: Compound concentration 1000.0 nM
[29] = target: Activin receptor type-2B (Homo sapiens) (UniProt Q13705); settings: Compound concentration 1000.0 nM
[30] = target: Leucine-rich repeat serine/threonine-protein kinase 2 (Homo sapiens) (UniProt Q5S007); settings: Compound concentration 1000.0 nM
[31] = target: Dual specificity tyrosine-phosphorylation-regulated kinase 1A (Homo sapiens) (UniProt Q13627); settings: Compound concentration 1000.0 nM
[32] = target: Serine/threonine-protein kinase OSR1 (Homo sapiens) (UniProt O95747); settings: Compound concentration 1000.0 nM
[33] = target: Tyrosine-protein kinase ITK/TSK (Homo sapiens) (UniProt Q08881); settings: Compound concentration 1000.0 nM
[34] = target: Serine/threonine-protein kinase PAK 5 (Homo sapiens) (UniProt Q9P286); settings: Compound concentration 1000.0 nM
[35] = target: Serine/threonine-protein kinase ULK2 (Homo sapiens) (UniProt Q8IYT8); settings: Compound concentration 1000.0 nM
Sequence of Serine/threonine-protein kinase ULK2 (Homo sapiens) (Q8IYT8 whole entry): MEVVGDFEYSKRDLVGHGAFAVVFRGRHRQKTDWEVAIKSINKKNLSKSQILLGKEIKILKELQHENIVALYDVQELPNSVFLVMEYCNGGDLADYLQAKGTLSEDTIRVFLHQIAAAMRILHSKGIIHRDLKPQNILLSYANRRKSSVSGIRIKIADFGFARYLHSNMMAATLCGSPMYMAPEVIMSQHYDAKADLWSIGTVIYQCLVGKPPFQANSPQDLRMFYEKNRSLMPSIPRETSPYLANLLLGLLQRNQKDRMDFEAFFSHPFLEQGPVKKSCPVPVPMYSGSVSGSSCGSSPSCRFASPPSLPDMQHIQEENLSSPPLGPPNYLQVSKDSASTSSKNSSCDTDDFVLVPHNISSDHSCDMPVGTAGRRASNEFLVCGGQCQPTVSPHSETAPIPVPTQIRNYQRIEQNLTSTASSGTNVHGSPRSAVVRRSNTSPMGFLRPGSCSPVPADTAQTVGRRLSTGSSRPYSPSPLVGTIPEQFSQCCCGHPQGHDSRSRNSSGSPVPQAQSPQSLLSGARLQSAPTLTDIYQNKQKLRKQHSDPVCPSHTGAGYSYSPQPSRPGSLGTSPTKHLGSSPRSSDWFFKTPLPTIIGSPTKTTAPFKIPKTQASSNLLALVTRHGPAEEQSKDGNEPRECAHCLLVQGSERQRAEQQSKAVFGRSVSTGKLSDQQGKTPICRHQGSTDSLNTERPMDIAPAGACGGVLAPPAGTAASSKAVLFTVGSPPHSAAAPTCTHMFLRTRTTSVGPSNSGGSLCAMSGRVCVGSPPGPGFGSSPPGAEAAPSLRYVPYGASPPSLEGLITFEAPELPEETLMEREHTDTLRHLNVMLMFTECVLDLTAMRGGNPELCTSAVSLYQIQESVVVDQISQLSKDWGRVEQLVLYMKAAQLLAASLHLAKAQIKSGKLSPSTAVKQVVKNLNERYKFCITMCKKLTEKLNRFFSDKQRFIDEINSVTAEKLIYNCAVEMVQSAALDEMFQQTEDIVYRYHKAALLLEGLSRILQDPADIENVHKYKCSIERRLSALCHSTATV

[36] = target: Protein kinase C eta type (Homo sapiens) (UniProt P24723); settings: Compound concentration 1000.0 nM
[37] = target: Serine/threonine-protein kinase DCLK2 (Homo sapiens) (UniProt Q8N568); settings: Compound concentration 1000.0 nM
[38] = target: BDNF/NT-3 growth factors receptor (Homo sapiens) (UniProt Q16620); settings: Compound concentration 1000.0 nM
Sequence of BDNF/NT-3 growth factors receptor (Homo sapiens) (Q16620 32-822 limits assumed): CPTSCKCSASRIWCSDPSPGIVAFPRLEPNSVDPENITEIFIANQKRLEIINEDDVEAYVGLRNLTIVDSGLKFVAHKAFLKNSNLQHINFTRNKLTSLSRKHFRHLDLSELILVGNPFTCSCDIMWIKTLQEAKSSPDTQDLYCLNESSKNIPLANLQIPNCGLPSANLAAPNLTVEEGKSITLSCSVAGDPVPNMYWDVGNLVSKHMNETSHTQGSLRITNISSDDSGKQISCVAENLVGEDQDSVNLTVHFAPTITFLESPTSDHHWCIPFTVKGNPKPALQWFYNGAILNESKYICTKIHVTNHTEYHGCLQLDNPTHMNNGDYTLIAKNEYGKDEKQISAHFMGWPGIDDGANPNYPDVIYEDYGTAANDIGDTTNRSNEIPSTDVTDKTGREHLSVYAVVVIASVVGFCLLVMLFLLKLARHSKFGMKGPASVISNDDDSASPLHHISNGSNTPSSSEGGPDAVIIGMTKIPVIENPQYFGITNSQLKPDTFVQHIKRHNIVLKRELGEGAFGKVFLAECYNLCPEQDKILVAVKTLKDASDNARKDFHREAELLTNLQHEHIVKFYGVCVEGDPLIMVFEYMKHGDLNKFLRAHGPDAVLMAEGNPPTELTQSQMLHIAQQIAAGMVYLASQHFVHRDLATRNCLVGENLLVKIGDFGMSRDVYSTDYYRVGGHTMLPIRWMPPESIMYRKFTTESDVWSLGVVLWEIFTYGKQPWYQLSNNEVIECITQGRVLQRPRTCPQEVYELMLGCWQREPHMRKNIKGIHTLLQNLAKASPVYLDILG

[39] = target: Interleukin-1 receptor-associated kinase 3 (Homo sapiens) (UniProt Q9Y616); settings: Compound concentration 1000.0 nM
[40] = target: Phosphatidylinositol 5-phosphate 4-kinase type-2 gamma (Homo sapiens) (UniProt Q8TBX8); settings: Compound concentration 1000.0 nM
[41] = target: Ribosomal protein S6 kinase alpha-2 (Homo sapiens) (UniProt Q15349); settings: Compound concentration 1000.0 nM
[42] = target: Serine/threonine-protein kinase PAK 4 (Homo sapiens) (UniProt O96013); settings: Compound concentration 1000.0 nM
Sequence of Serine/threonine-protein kinase PAK 4 (Homo sapiens) (O96013 whole entry, looked up): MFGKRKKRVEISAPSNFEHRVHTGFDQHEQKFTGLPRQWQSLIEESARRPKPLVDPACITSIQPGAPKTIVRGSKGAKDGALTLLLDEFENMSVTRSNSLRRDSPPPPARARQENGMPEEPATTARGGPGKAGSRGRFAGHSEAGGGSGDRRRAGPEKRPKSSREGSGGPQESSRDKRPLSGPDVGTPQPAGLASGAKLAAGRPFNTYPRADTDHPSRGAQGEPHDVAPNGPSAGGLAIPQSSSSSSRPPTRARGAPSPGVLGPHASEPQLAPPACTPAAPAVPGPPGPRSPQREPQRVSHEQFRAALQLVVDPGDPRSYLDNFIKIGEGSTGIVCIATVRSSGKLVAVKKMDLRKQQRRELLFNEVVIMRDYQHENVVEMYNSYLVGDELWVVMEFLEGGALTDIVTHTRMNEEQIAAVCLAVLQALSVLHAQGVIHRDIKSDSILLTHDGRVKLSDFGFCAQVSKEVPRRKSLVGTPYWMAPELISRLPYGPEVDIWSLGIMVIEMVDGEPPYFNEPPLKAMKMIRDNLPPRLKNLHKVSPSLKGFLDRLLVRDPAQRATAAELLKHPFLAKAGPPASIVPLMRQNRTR

[43] = target: cAMP-dependent protein kinase catalytic subunit beta (Homo sapiens) (UniProt P22694); settings: Compound concentration 1000.0 nM
[44] = target: SNF-related serine/threonine-protein kinase (Homo sapiens) (UniProt Q9NRH2); settings: Compound concentration 1000.0 nM
[45] = target: Ephrin type-A receptor 5 (Homo sapiens) (UniProt P54756); settings: Compound concentration 1000.0 nM

Question: For `Cc1nc(N2CC[C@@H](O)C2)ncc1-c1cc(C(F)(F)F)cc2[nH]ncc12` [TP-004], which residual activity [1] is on record?
Answer: 100%

Question: And the residual activity [2]?
Answer: 100%

Question: And the residual activity [3]?
Answer: 100%

Question: And the residual activity [4]?
Answer: 91%

Question: What about the residual activity [5] of the same molecule?
Answer: 100%

Question: And the residual activity [6]?
Answer: 81%

Question: And the residual activity [7]?
Answer: 72%

Question: And the IC50 [8]?
Answer: 7 nM (active)

Question: What about the residual activity [9] of the same molecule?
Answer: 75%

Question: And the residual activity [10]?
Answer: 91%

Question: What about the inhibition [11] of the same molecule?
Answer: 15.7%

Question: And the residual activity [12]?
Answer: 100%

Question: What about the residual activity [13] of the same molecule?
Answer: 83%

Question: What about the residual activity [14] of the same molecule?
Answer: 56%

Question: What about the residual activity [15] of the same molecule?
Answer: 100%

Question: What about the residual activity [16] of the same molecule?
Answer: 97%

Question: What about the residual activity [17] of the same molecule?
Answer: 66%

Question: What about the residual activity [18] of the same molecule?
Answer: 60%

Question: And the residual activity [19]?
Answer: 100%

Question: And the residual activity [20]?
Answer: 36%

Question: What about the residual activity [21] of the same molecule?
Answer: 100%

Question: And the residual activity [22]?
Answer: 100%

Question: What about the inhibition [23] of the same molecule?
Answer: 36.9%

Question: What about the residual activity [24] of the same molecule?
Answer: 82%

Question: What about the residual activity [25] of the same molecule?
Answer: 96%

Question: And the residual activity [26]?
Answer: 87%

Question: What about the residual activity [27] of the same molecule?
Answer: 79%

Question: And the residual activity [28]?
Answer: 58%

Question: What about the residual activity [29] of the same molecule?
Answer: 79%

Question: And the residual activity [30]?
Answer: 58%

Question: And the residual activity [31]?
Answer: 73%

Question: What about the residual activity [32] of the same molecule?
Answer: 67%

Question: What about the residual activity [33] of the same molecule?
Answer: 64%

Question: And the residual activity [34]?
Answer: 99%

Question: And the residual activity [35]?
Answer: 66%

Question: What about the residual activity [36] of the same molecule?
Answer: 94%

Question: What about the residual activity [37] of the same molecule?
Answer: 100%

Question: What about the residual activity [38] of the same molecule?
Answer: 53%

Question: And the residual activity [39]?
Answer: 85%

Question: What about the residual activity [40] of the same molecule?
Answer: 100%

Question: What about the residual activity [41] of the same molecule?
Answer: 100%

Question: And the residual activity [42]?
Answer: 100%

Question: And the residual activity [43]?
Answer: 79%

Question: What about the residual activity [44] of the same molecule?
Answer: 96%

Question: What about the residual activity [45] of the same molecule?
Answer: 100%
